Assays:
[1] = biological target: T1, Recombinant Human NF-kappaB-inducing Kinase (NIK/MAP3K14) (Homo sapiens (Human), UniProt Q99558); experiment: Biological Assay A: inhibition of recombinant human NIK/MAP3K14 activity (MSD, MBP substrate); conditions: 25 μM ATP, 10 nM NIK/MAP3K14, 1 h at 25° C.; averaged over all measurements on all batches; read-out: Biochemical (MSD MBP) IC50
Procedure: Inhibition of Recombinant Human NF-kappaB-inducing Kinase (NIK/MAP3K14) Activity
Assay buffer was 50 mM Tris pH 7.5 containing 1 mM EGTA (ethylene glycol tetraacetic acid), 1 mM DTT (dithiothreitol), 0.1 mM Na3VO4, 5 mM MgCl2, 0.01% Tween® 20. Assays were carried out in 384 well Mesoscale high binding plates which had been coated with myelin basic protein (MBP) and blocked with bovine serum albumin to prevent non-specific protein binding. All compounds tested were dissolved in dimethyl sulfoxide (DMSO) and further dilutions were made in assay buffer. Final DMSO concentration was 1% (v/v) in assays. Incubations consisted of compound (1% DMSO in control and blank wells), 25 μM Adenosine-5′-triphosphate (ATP), and 10 nM NIK/MAP3K14 substituting enzyme with buffer in the blank wells. Incubations were carried out for 1 h at 25° C. and were followed by washing and sequential incubation with rabbit anti-phospho-MBP and anti-rabbit Ig Sulfotag antibody before reading bound Sulfotag on a Mesoscale Discovery. Signal obtained in the wells containing blank samples was subtracted from all other wells and IC50's were determined by fitting a sigmoidal curve to % inhibition of control versus Log10 compound concentration.

[2] = biological target: T1, Recombinant Human NF-kappaB-inducing Kinase (NIK/MAP3K14); experiment: Biological Assay A2: inhibition of auto-phosphorylation of recombinant human NIK/MAP3K14 (AlphaScreen); assay type: biochemical; conditions: 25 microM ATP, 0.2 nM GST-tagged NIK/MAP3K14, 1 h at 25° C., averaged values, read-out: Alpha-Screen IC50
Procedure: Inhibition of Auto-phosphorylation of Recombinant Human NF-kappaB-inducing Kinase (NIK/MAP3K14) Activity (AlphaScreen®)
NIK/MAP3K14 auto-phosphorylation activity was measured using the AlphaScreen® (αscreen) format (Perkin Elmer). All compounds tested were dissolved in dimethyl sulfoxide (DMSO) and further dilutions were made in assay buffer. Final DMSO concentration was 1% (v/v) in assays. Assay buffer was 50 mM Tris pH 7.5 containing 1 mM EGTA (ethylene glycol tetraacetic acid), 1 mM DTT (dithiothreitol), 0.1 mM Na3VO4, 5 mM MgCl2, 0.01% Tween® 20. Assays were carried out in 384 well Alphaplates (Perkin Elmer). Incubations consisted of compound, 25 microM Adenosine-5′-triphosphate (ATP), and 0.2 nM NIK/MAP3K14. Incubations were initiated by addition of GST-tagged NIK/MAP3K14 enzyme, carried out for 1 h at 25° C. and terminated by addition of stop buffer containing anti-phospho-IKK Ser176/180 antibody. Protein A Acceptor and Glutathione-Donor beads were added before reading using an EnVision® Multilabel Plate Reader (Perkin Elmer). Signal obtained in the wells containing blank samples was subtracted from all other wells and IC50's were determined by fitting a sigmoidal curve to % inhibition of control versus Log10 compound concentration.

[3] = system: P-IKKα levels in L363 cells; experiment: Biological Assay B: effect of compounds on P-IKKα levels in L363 cells; assay type: cell-based; conditions: Homo sapiens, L-363; L363 cells with BAFF, 2 hr treatment; averaged values; read-out: IKKα Cellular IC50
Procedure: Effect of Compounds on P-IKKα Levels in L363 Cells
All compounds tested were dissolved in DMSO and further dilutions were made in culture medium. Final DMSO concentration was 1% (v/v) in cell assays. The human L363 cells (ATCC) were cultured in RPMI 1640 medium supplemented with GlutaMax and 10% fetal calf serum (PAA). Cells were routinely maintained at densities of 0.2×10^6 cells per ml-1×10^6 cells per ml at 37° C. in a humidified 5% CO2 atmosphere. Cells were passaged twice a week splitting back to obtain the low density. Cells were seeded in 96 well plates (Nunc 167008) at 2×10^6 per ml media in a volume of 75 μl per well plus 25 μl 1 μg/ml recombinant human B-cell activating factor (BAFF/BLyS/TNFSF13B). Seeded cells were incubated at 37° C. in a humidified 5% CO2 atmosphere for 24 hr. Drugs and/or solvents were added (20 μl) to a final volume of 120 μl. Following 2 hr treatment plates were removed from the incubator and cell lysis was achieved by the addition of 30 μl 5× lysis buffer followed by shaking on a plate shaker at 4° C. for 10 min. At the end of this incubation lysed cells were centrifuged at 800×g for 20 min at 4° C. and the lysate was assessed for P-IKKα levels by sandwich immuno-assay carried out in anti-rabbit antibody coated Mesoscale plates. Within an experiment, the results for each treatment were the mean of 2 replicate wells. For initial screening purposes, compounds were tested using an 8 point dilution curve (serial 1:3 dilutions). For each experiment, controls (containing MG132 and BAFF but no test drug) and a blank incubation (containing MG132 and BAFF and 10 μM ADS125117, a test concentration known to give full inhibition) were run in parallel. The blank incubation value was subtracted from all control and sample values. To determine the IC50 a sigmoidal curve was fitted to the plot of % inhibition of control P-IKKα levels versus Log10 compound concentration.

JJN-3 cells = experiment: Biological Assay C: antiproliferative activity on JJN-3 cells (CellTiter-Glo); assay type: cell-based; conditions: Homo sapiens, 72 hr of treatment, averaged values
Procedure: (§1) Determination of Antiproliferative Activity on LP-1, L-363 and JJN-3 Cells
(§2) All compounds tested were dissolved in DMSO and further dilutions were made in culture medium. Final DMSO concentration was 0.3% (v/v) in cell proliferation assays. Viability was assessed using CellTiter-Glo cell viability assay kit (Promega). The human LP-1, L-363 and JJN-3 cells (DSMZ) were cultured in RPMI 1640 medium supplemented with 2 mM L-glutamine, and 10% fetal calf serum (PAA). Cells were routinely kept as suspension cells at 37° C. in a humidified 5% CO2 atmosphere. Cells were passaged at a seeding density of 0.2×10^6/ml twice a week. Cells were seeded in black tissue culture treated 96-well plates (Perkin Elmer). Densities used for plating ranged from 2,000 to 6,000 cells per well in a total volume of 75 μl medium. After twenty four hours, drugs and/or solvents were added (25 μl) to a final volume of 100 μl. Following 72 hr of treatment plates were removed from the incubator and allowed to equilibrate to room temperature for approx 10 min. 100 μl CellTiter-Glo reagent was added to each well that was then covered (Perkin Elmer Topseal) and shaken on plate shaker for 10 min. Luminescence was measured on a HTS Topcount (Perkin Elmer). Within an experiment, the results for each treatment were the mean of 2 replicate wells. For initial screening purposes, compounds were tested using a 9 point dilution curve (serial 1:3 dilutions). For each experiment, controls (containing no drug) and a blank incubation (containing cells read at the time of compound addition) were run in parallel. The blank value was subtracted from all control and sample values. For each sample, the mean value for cell growth (in relative light units) was expressed as a percentage of the mean value for cell growth of the control.

L-363 cells = experiment: Biological Assay C: antiproliferative activity on L-363 cells (CellTiter-Glo); assay type: cell-based; conditions: Homo sapiens, 72 hr of treatment, averaged values
Procedure: as §1, §2

LP-1 cells = experiment: Biological Assay C: antiproliferative activity on LP-1 cells (CellTiter-Glo); assay type: cell-based; conditions: Homo sapiens, 72 hr of treatment, averaged values
Procedure: as §1, §2

T1 sequence (Q99558 whole entry): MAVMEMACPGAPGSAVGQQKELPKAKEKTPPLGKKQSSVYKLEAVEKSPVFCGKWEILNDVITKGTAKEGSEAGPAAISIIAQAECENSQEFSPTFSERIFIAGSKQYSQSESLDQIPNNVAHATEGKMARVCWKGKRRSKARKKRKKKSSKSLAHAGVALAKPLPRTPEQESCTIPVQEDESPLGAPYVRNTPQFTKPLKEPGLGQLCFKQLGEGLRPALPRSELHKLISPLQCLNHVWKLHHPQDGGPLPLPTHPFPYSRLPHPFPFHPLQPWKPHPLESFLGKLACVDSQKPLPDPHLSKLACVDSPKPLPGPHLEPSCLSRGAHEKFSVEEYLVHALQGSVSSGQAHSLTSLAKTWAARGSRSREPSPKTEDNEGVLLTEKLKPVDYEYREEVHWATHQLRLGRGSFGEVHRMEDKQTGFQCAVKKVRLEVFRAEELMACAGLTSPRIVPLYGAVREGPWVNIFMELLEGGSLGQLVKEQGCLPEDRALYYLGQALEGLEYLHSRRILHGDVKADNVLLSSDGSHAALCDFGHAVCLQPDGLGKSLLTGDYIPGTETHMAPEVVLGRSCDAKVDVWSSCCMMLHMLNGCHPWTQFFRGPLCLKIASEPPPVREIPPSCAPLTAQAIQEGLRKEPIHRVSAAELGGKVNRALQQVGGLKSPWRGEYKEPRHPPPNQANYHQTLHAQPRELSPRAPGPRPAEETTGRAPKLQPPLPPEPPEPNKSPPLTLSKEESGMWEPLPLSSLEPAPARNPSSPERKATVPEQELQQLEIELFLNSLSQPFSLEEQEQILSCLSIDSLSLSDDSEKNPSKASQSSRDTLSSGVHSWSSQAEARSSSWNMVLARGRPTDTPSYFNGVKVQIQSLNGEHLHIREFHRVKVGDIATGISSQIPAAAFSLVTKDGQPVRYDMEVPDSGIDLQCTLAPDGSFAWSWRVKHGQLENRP

Row | SMILES | IC50 [1] | IC50 [2] | IC50 [3] | EC50 (JJN-3 cells) | EC50 (L-363 cells) | EC50 (LP-1 cells)
1 | CCn1cc(-c2cn[nH]c2)c2cc(C#CC3(O)CCCC3)ncc21 [Compound 10] | 0.009 µM | 0.023 µM | 0.113 µM | 1.21 µM | 3.18 µM | 5.07 µM
2 | CC(C)(O)C#Cc1cc2c(-c3cn[nH]c3)c[nH]c2cn1 [Compound 1] | 0.06 µM | 0.053 µM | 0.736 µM | 3.34 µM | 6.98 µM | > 30 µM
3 | Cn1cc(-c2cn[nH]c2)c2cc(C#CC3(O)CCCC3)ncc21 [Compound 8] | 0.021 µM | 0.007 µM | 0.406 µM | 3.33 µM | 5.86 µM | 9.54 µM
4 | CC(O)(C#Cc1cc2c(-c3cn[nH]c3)c[nH]c2cn1)c1nccs1 (stereo not drawn) [Compound 7] | 0.009 µM | 0.009 µM | 0.882 µM | > 30 µM | 5.39 µM | > 30 µM
5 | COCCn1cc(-c2cn[nH]c2)c2cc(C#CC(C)(C)O)ncc21 [Compound 16] | 0.092 µM | 0.099 µM | 0.523 µM | 4.05 µM | 3.14 µM | 20.4 µM
6 | CC(C)Cn1cc(-c2cn[nH]c2)c2cc(C#CC(C)(C)O)ncc21 [Compound 21] | 0.055 µM | 0.025 µM | 0.119 µM | 0.629 µM | 0.427 µM | 1.12 µM

The next lines start with results.

Row | IC50 [1] | IC50 [2] | IC50 [3] | SMILES | EC50 (JJN-3 cells) | EC50 (L-363 cells) | EC50 (LP-1 cells)
7 | 0.068 µM | 0.044 µM | 1.01 µM | CC(C)(O)C#Cc1cc2c(-c3c[nH]nc3C#N)cn(CC(C)(C)O)c2cn1 [Compound 32] | 5.67 µM | 22.6 µM | > 30 µM
8 | 0.224 µM | 0.232 µM | 1.77 µM | CC(C)(O)C#Cc1cc2c(-c3cn[nH]c3)cn(Cc3ccccc3)c2cn1 [Compound 22] | 6.08 µM | 5.53 µM | 5.23 µM
9 | 0.014 µM | 0.055 µM | 0.46 µM | CC(C)(O)C#Cc1cc2c(-c3cn[nH]c3)cn(S(C)(=O)=O)c2cn1 [Compound 25] | 1.9 µM | 2.27 µM | 4.98 µM
10 | 0.029 µM | 0.023 µM | 0.149 µM | CCn1cc(-c2c[nH]nc2C)c2cc(C#CC(C)(C)O)ncc21 [Compound 30] | 1.69 µM | 2.41 µM | 8.23 µM
11 | 0.009 µM | 0.035 µM | 0.214 µM | CCn1cc(-c2c[nH]nc2C#N)c2cc(C#CC(C)(C)O)ncc21 [Compound 31] | 2.38 µM | 3.94 µM | 4.9 µM

From patent publication US9981963B2, “3-(1H-pyrazol-4-yl)-1H-pyrrolo[2,3-c]pyridine derivatives as NIK inhibitors” (Janssen Pharmaceutica NV, priority 2013, dated 2018)
